Test results reported in PMC5215601, “Functional Characterization of the N-Terminal C2 Domain from Arabidopsis thaliana Phospholipase Dα and Dβ” (BioMed Research International, 2016).

Key:
[1] = molecular target: T1, C2β domain of AtPLDβ (mC2β) (Arabidopsis thaliana, UniProt P93733, F299V); assay: protein to dansyl-PE liposome FRET; lipid dot-blot; assay type: binding; conditions: 20 μM liposomes with 5% dansyl-PE, 1 μM domain, 50 mM HEPES pH 8, 30 °C; 0, 50 or 200 μM Ca2+
T1 construct: gene PLDBETA1; C2 domain cut to match mature-like C2α; forward primer encodes MVGRLPG (second codon F changed to V); C-terminal 6xHis kept
T1 sequence (P93733 298-418 F299V): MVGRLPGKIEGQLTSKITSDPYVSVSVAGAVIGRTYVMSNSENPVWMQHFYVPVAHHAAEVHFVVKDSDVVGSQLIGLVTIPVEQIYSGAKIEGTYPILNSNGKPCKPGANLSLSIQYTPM

[2] = molecular target: T2, C2α domain of AtPLDα (mC2α) (Arabidopsis thaliana, UniProt Q38882); assay: protein to dansyl-PE liposome FRET; lipid dot-blot; assay type: binding; conditions: 20 μM liposomes with 5% dansyl-PE, 1 μM domain, 50 mM HEPES pH 8, 30 °C; 0, 50 or 200 μM Ca2+
T2 construct: gene PLDALPHA1; mature-like C2 domain lacking the N-terminal residues; forward primer encodes (M)ANVEET, extra Met added; last encoded residues before tag ...LQYFHVE by reverse primer; C-terminal 6xHis kept
T2 sequence (Q38882 35-152): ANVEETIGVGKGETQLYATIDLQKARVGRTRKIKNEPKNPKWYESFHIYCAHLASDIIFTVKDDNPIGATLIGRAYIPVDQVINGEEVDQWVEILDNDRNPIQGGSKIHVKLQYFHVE

[3] = molecular target: T3, AtPLDα-WT (Arabidopsis thaliana, UniProt Q38882); assay: choline oxidase / peroxidase coupled colorimetric assay, […] nm; assay type: biochemical; conditions: crude P. pastoris extract; 266 μM POPC in SDS / Triton X-100 mixed micelles, 20 mM CaCl2, 50 mM Tris-HCl pH 8.0
T3 construct: gene PLDALPHA1; full-length cDNA, untagged, Pichia pastoris X-33; possibly N-glycosylated
T3 sequence (Q38882 36-810): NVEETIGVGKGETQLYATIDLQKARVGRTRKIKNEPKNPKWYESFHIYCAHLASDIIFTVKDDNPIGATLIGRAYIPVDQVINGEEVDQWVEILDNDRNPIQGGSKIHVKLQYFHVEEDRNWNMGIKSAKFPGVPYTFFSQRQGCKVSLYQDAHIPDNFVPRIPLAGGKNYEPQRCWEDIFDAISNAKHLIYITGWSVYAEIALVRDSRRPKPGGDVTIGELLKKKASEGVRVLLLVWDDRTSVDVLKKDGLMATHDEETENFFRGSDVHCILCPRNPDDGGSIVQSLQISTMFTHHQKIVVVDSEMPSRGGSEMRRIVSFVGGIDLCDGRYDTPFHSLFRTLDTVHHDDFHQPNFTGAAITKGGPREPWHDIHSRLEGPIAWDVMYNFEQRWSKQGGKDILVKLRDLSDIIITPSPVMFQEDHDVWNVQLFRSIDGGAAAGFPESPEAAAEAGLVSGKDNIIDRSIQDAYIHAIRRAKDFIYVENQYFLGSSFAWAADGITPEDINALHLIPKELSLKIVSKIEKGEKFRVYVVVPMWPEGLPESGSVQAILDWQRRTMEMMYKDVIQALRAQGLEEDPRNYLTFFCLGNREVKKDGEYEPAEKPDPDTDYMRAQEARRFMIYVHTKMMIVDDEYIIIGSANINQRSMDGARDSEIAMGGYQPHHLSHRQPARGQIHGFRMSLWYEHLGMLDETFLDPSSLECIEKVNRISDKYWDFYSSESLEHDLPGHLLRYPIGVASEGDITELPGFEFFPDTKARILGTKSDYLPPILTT

[4] = molecular target: T1, C2β domain of AtPLDβ (mC2β); assay: protein to dansyl-PE liposome FRET; assay type: binding; conditions: 20 μM liposomes with 5% dansyl-PE, 1 μM domain, 50 mM HEPES pH 8, 30 °C; 0, 50 or 200 μM Ca2+

CCCCCCCC/C=C\CCCCCCCC(=O)O[C@H](COC(=O)CCCCCCCCCCCCCCC)COP(=O)(O)O [PA, 1-palmitoyl-2-oleoyl-sn-glycero-3-phosphate]
relative FRET [1]: both C2 domains were found to bind anionic phospholipids (PA and PS) | relative FRET [2]: both C2 domains were found to bind anionic phospholipids (PA and PS)

CCCCCCCC/C=C\CCCCCCCC(=O)O[C@H](COC(=O)CCCCCCCCCCCCCCC)COP(=O)([O-])OCC[N+](C)(C)C [PC, 1-Palmitoyl-2-oleoyl-sn-glycero-3-phosphocholine]
PLD activity [3]: crude extracts of P. pastoris transformed with the AtPLDα-WT exhibited a higher PLD activity

CCCCCCCC/C=C\CCCCCCCC(=O)O[C@H](COC(=O)CCCCCCCCCCCCCCC)COP(=O)(O)OCC(O)CO (mixture of isomers) [PG, 1-Palmitoyl-2-oleoyl-sn-glycero-3-phospho-(1′-rac-glycerol)]
relative FRET [4]: both C2 domains showed a strong binding to PG vesicles | relative FRET [2]: both C2 domains showed a strong binding to PG vesicles
